# Reference: publication PMC7942396, “Drug Repurposing Screen for Compounds Inhibiting the Cytopathic Effect of SARS-CoV-2” (Frontiers in Pharmacology, 2021)
# Where a name gives a salt, the structure may show the parent alone. Read-outs that look alike come from different tables or passages of the source.
# Assays:
# in vitro = details: African green monkey
# [1] = tested on: SARS-CoV-2 (USA_WA1/2020); test: microbe, parasite or virus in culture; type: cell-based
# [2] = Severe acute respiratory syndrome coronavirus 2, Vero C1008, SARS-CoV-2 CPE assay, Vero E6 cells, efficacy, read-out: CPE % Efficacy
# [3] = Severe acute respiratory syndrome coronavirus 2, Vero C1008, SARS-CoV-2 CPE assay, Vero E6 cells, confirmed anti-SARS-CoV-2 compounds, read-out: CPE EC50
# [4] = Severe acute respiratory syndrome coronavirus 2, Vero C1008, SARS-CoV-2 CPE assay, Vero E6 cells, read-out: CPE % Efficacy
# [5] = Severe acute respiratory syndrome coronavirus 2, Vero C1008, SARS-CoV-2 CPE assay, Vero E6 cells, read-out: CPE EC50
# [6] = Severe acute respiratory syndrome coronavirus 2, Vero C1008, 72 h, read-out: CPE EC50
# [7] = Severe acute respiratory syndrome coronavirus 2, Vero C1008, […], DMSO 0%, no-virus control 100%, hit confirmation, read-out: CPE % efficacy
# [8] = Severe acute respiratory syndrome coronavirus 2, Vero C1008, read-out: CPE % Efficacy
# [9] = Severe acute respiratory syndrome coronavirus 2, Vero C1008, read-out: CPE EC50 (uM)
Compound,cytotoxicity (in vitro),"Emax [1, 2]",cytotoxicity at 72 h (in vitro),"EC50 [1, 3]",CC50 (in vitro),further results
CN(C)CCCN1c2ccccc2CCc2ccc(Cl)cc21 [Clomipramine hydrochloride],33.2%,91.6%,–,–,–,–
CN(C)[C@@H](CCOc1cccc2ccccc12)c1ccccc1 [Dapoxetine],–,82.6%,32%,10 µM,–,–
N#Cc1ccc2[nH]cc(CCCCN3CCN(c4ccc5oc(C(N)=O)cc5c4)CC3)c2c1 [Vilazodone Hydrochloride],–,–,25.3%,–,–,"CC50 at 72 h (in vitro): 19.9 µM; Emax [1, 4]: 90.8%; EC50 [1, 5]: 12.6 µM"
CC/C(=C(\c1ccccc1)c1ccc(OCCN(C)C)cc1)c1ccccc1 [Tamoxifen],93.9%,102%,–,–,–,–
CN1CCC(=C2c3ccccc3C=Cc3ccccc32)CC1 [Cyproheptadine hydrochloride],20.2%,50%,–,–,12.6 µM,–
Cc1ccc(NC(=O)Nc2cc(C(F)(F)F)ccc2F)cc1Nc1ccc2c(c1)NC(=O)/C2=C\c1ccc[nH]1 [GNF-5837],61.4%,84%,–,3.16 µM,8.91 µM,–
CN1CCC(=C2c3ccccc3CCc3sccc32)CC1 [Pizotifen],–,111%,13.4%,11.2 µM,–,CC50 at 72 h (in vitro): 11.2 µM
CN(C)CCCN1c2ccccc2CCc2ccccc21 [Imipramine],0%,–,–,–,–,"Emax [1, 4]: 57.6%; EC50 [1, 5]: 12.6 µM"
COCCN1CCN(Cc2ccc(-c3n[nH]c4c3C(=O)c3c(NC(=O)NN5CCOCC5)cccc3-4)cc2)CC1 [RGB-286638],–,111%,37.9%,2.82 µM,–,CC50 at 72 h (in vitro): 0.32 µM
COc1c(-c2ccc3cc(NS(C)(=O)=O)ccc3c2)cc(-n2ccc(=O)[nH]c2=O)cc1C(C)(C)C [ABT-333],–,–,42.5%,–,–,"Emax [1, 4]: 48.7%; EC50 [1, 5]: 12.6 µM"
CCOC(=O)c1c(CSc2ccccc2)n(C)c2cc(Br)c(O)c(CN(C)C)c12 [Arbidol],17.3%,105%,–,11.2 µM,12.6 µM,–
CN1CCCN(C(c2ccccc2)c2ccc(Cl)cc2)CC1 (stereo not shown) [Homochlorcyclizine],34.2%,84.3%,–,10 µM,12.6 µM,–
COc1cc(O)c2c(c1)[C@H]1O[C@@H]1C[C@H](O)[C@H](O)C(=O)/C=C\C[C@H](C)OC2=O [Hypothemycin],60.1%,–,–,–,12.6 µM,"Emax [1, 4]: 81.2%; EC50 [1, 5]: 12.6 µM"
Cc1cc(C2CCCCC2)n(O)c(=O)c1 [Ciclopirox],–,63.4%,56.1%,8.91 µM,–,CC50 at 72 h (in vitro): 2.51 µM
CCNCCc1ccc(CN(CC)c2cc(OC)ccc2[C@@H]2CCc3cc(O)ccc3C2)cc1 [Elacestrant],–,104%,104%,3.98 µM,–,CC50 at 72 h (in vitro): 12.6 µM
CC1=C(c2ccc(O)cc2)[C@H](c2ccc(OCCN3CCCCC3)cc2)Oc2cc(O)ccc21 [Acolbifene],54.1%,56.1%,–,5.62 µM,12.6 µM,–
CN1[C@@H]2CC[C@H]1C[C@@H](OC(c1ccccc1)c1ccccc1)C2 [Benztropine mesylate],0%,–,–,–,–,"Emax [1, 4]: 59%"
CN(C)CCCN1c2ccccc2Sc2ccc(Cl)cc21 [Chlorpromazine],45.6%,–,–,–,11.2 µM,"Emax [1, 4]: 102%; EC50 [1, 5]: 12.6 µM"
"COC(=O)[C@H]1[C@H]2C[C@@H]3c4[nH]c5cc(OC)ccc5c4CCN3C[C@H]2C[C@@H](OC(=O)/C=C/c2ccc(O)c(OC)c2)[C@@H]1OC [Rescimetol, reference compound]",–,–,< 30%,–,–,"EC50 [1, 6]: 8.9 µM; Emax [1, 7]: 81.8%"
CC(=O)O[C@@H]1C[C@H](O)[C@@]23CO[C@@H](O)[C@]1(C)[C@@H]2C[C@@H](O)[C@]1(C)[C@@H]3C(=O)[C@H](OC(C)=O)[C@@]2(C)[C@H](c3ccoc3)C[C@H]3O[C@]321 [Toosendanin],40.9%,88.9%,–,1.19 µM,2.66 µM,–
NC(=O)c1cnc(N[C@@H]2CCCC[C@@H]2N)nc1Nc1cccc(-n2nccn2)c1 [PRT-062607],24.9%,66.4%,–,11.2 µM,–,–
CCOC(=O)C1=C(COCCN)NC(C)=C(C(=O)OC)C1c1ccccc1Cl (stereo not shown) [Amlodipine],0%,–,–,–,–,"Emax [1, 4]: 99.8%; EC50 [1, 5]: 12.6 µM"
CCCCN(CCCC)CCC(O)c1cc2c(Cl)cc(Cl)cc2c2cc(C(F)(F)F)ccc12 (stereo not shown) [Halofantrine],37.6%,73.4%,–,5.62 µM,–,–
C=CC(=O)N[C@H]1CCOC[C@H]1Nc1ncc2cc(-c3c(Cl)c(OC)cc(OC)c3Cl)ccc2n1 [BLU-554],–,–,0%,–,–,"Emax [1, 4]: 31.5%; EC50 [1, 5]: 12.6 µM"

Compound,cytotoxicity (in vitro),"Emax [1, 2]",cytotoxicity at 72 h (in vitro),"EC50 [1, 3]",CC50 (in vitro),further results
"CC(C)(O)CNc1ncc(-c2ccnc(Nc3ccnc(Cl)c3)n2)c(CC2CC2)n1 [VPS34-IN1, reference compound]",–,–,–,–,10 µM,"Shape of concentration-response in the CPE assay ([1]; Figure 3): bell-shaped concentration-responses due to cytotoxicity; EC50 [1, 6]: 0.63 µM; Emax [1, 7]: 103%"
"CCCN(CCC)C(=O)C(CCC(=O)OCCCN1CCN(CCOC(=O)Cc2c(C)n(C(=O)c3ccc(Cl)cc3)c3ccc(OC)cc23)CC1)NC(=O)c1ccccc1 (stereo not shown) [Proglumetacin, reference compound]",–,–,< 30%,–,–,"EC50 [1, 6]: 10 µM; Emax [1, 7]: 87.6%"
COc1cc2nc(N3CCN(C(=O)C4COc5ccccc5O4)CC3)nc(N)c2cc1OC (stereo not shown) [Doxazosin mesylate],0%,–,–,–,–,"Emax [1, 4]: 86.6%; EC50 [1, 5]: 14.1 µM"
CN1CCN(CCCN2c3ccccc3Sc3ccc(Cl)cc32)CC1 [Prochlorperazine dimaleate],103%,107%,–,–,22.4 µM,–
"Cc1cccc(/C=N/Nc2cc(N3CCOCC3)nc(OCCc3ccccn3)n2)c1 [Apilimod, reference compound]",–,–,< 30%,–,–,"EC50 [1, 6]: 0.023 µM; Emax [1, 7]: 104%"
COc1c(C)cnc(Cn2cnc3c(Cl)nc(N)nc32)c1C [CNF-2024],21.1%,51.3%,–,2.24 µM,0.35 µM,–
"CCCN1CCN(c2ccc(C(=O)NC3(C(=O)NCC#N)CCCCC3)cc2)CC1 [Balicatib, reference compound]",–,–,< 30%,–,–,"EC50 [1, 6]: 2 µM; Emax [1, 7]: 100%"
CC(C)[C@@]1(NC(=O)[C@@H]2C[C@@H]3c4cccc5[nH]cc(c45)C[C@H]3N(C)C2)O[C@@]2(O)[C@@H]3CCCN3C(=O)[C@H](Cc3ccccc3)N2C1=O [Dihydroergocristine],11.5%,–,–,–,15.8 µM,"Emax [1, 4]: 32%; EC50 [1, 5]: 14.1 µM"
Cc1c(O)cccc1C(=O)N[C@@H](CSc1ccccc1)[C@H](O)CN1C[C@H]2CCCC[C@H]2C[C@H]1C(=O)NC(C)(C)C [Nelfinavir Mesylate],96.9%,106%,–,3.55 µM,12.6 µM,–
CC(CN1c2ccccc2Sc2ccccc21)N(C)C (stereo not shown) [Promethazine],–,94%,15.4%,11.2 µM,–,CC50 at 72 h (in vitro): 15.8 µM
O=C(CCCN1CCC2(CC1)C(=O)NCN2c1ccccc1)c1ccc(F)cc1 [Spiperone],–,61.2%,30%,4.47 µM,–,CC50 at 72 h (in vitro): 3.55 µM
CN(C)CCCN1c2ccccc2Sc2ccccc21 [Promazine hydrochloride],9.4%,55.8%,–,10 µM,–,–
CC#C[C@@H](CC(=O)O)c1ccc(OCc2cccc(-c3ccc(C(F)(F)F)cc3)c2)cc1 [AMG-837],20.2%,106%,–,11.2 µM,15.8 µM,–
Cc1cc(O)c2c(c1)O[C@@]1(C)CC[C@H]3C(C)(C)CCC[C@]34CO[C@@H]2[C@H]41 [Siccanin],–,–,0%,–,–,"Emax [1, 4]: 104%; EC50 [1, 5]: 12.6 µM"
c1ccc(-c2ccc(C(c3ccccc3)n3ccnc3)cc2)cc1 (stereo not shown) [Bifonazole],24.5%,36.4%,–,10 µM,–,–
OCCOc1ccc(/C(=C(/CCCl)c2ccccc2)c2ccccc2)cc1 [Ospemifene],26.6%,–,–,–,12.6 µM,"Emax [1, 8]: 48.2%; EC50 [1, 9]: 12.6 µM"
CN1CCCCC1CCN1c2ccccc2Sc2ccc([S+](C)[O-])cc21 (stereo not shown) [Mesoridazine],16.1%,–,–,–,15.8 µM,"Emax [1, 8]: 43.5%; EC50 [1, 9]: 12.6 µM"
CN(C)c1cc2c(cc1Sc1nc3c(N)nccc3n1CCNCC(C)(C)C)OCO2 [CUDC-305],–,74.5%,27.7%,2.51 µM,–,CC50 at 72 h (in vitro): 0.71 µM
CCN(CC)CCOc1ccc2c(c1)C(=O)c1cc(OCCN(CC)CC)ccc1-2 [TILORONE],–,74.3%,97.2%,3.98 µM,–,CC50 at 72 h (in vitro): 11.2 µM
O=c1c2ccccc2[se]n1-c1ccccc1 [Ebselen],–,38.1%,0%,11.2 µM,–,–
O[C@H]1[C@H]2c3cc4c(cc3CN3CCC(=C[C@@H]1O)[C@H]23)OCO4 [Lycorine hydrochloride],90.6%,34.6%,–,0.63 µM,3.55 µM,–
"CN1CCC(CN2c3ccccc3Sc3ccccc32)C1 (stereo not shown) [Methdilazine hydrochloride, reference compound]",< 30%,–,–,–,–,"EC50 [1, 6]: 10 µM; Emax [1, 7]: 86.4%"
Oc1c(Cl)cc(Cl)c2cccnc12 [Chloroxine],61.5%,64.9%,–,11.2 µM,7.08 µM,–
